The record followed here is PubChem BioAssay (NCI).

What all share (assay): NCI tumour cell line growth inhibition, 48 h
In assay [1] the test system is 786-0 renal.
The subject of assay [2] is COLO 205 colon.
In assay [3] the test system is HS 578T breast.
In assay [4] the test system is K-562 leukemia.
Assay [5] deals with MCF7 breast.
The test system of assay [6] is OVCAR-4 ovarian.
Assay [7] relates to RXF 393 renal.
For assay [8], the system named is SF-295 CNS.
For assay [9], the system named is SF-539 CNS.
The subject of assay [10] is SR leukemia.

Molecules are shown by their SMILES.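 Five compound concentrations were applied to cells in 96-well plates for 48 hours; endpoints were derived by simple linear interpolation of the resulting dose-response curve. Abbreviation: GI50, concentration required for 50% inhibition of growth. At the TGI there is no net growth.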 Bounds are passed on as bounds.

Consider `Cc1ccc(-c2c3c(N)nc(-c4ccncc4)nc3nc3c2c(C)nn3-c2ccccc2)cc1`, for which the GI50 was 12.4 µM in [1]; 35.3 µM in assay [2]; 5.92 µM in [3]; 5 µM in [4]; 3.63 µM in assay [5]; 7.44 µM in assay [6]. Further, the GI50 in assay [7] is 3.88 µM; in assay [8], above 37.5 µM; in assay [9], 2.26 µM; in assay [10], 7.09 µM. The TGI was above 37.5 µM in assay [1]; above 37.5 µM in assay [2]; above 37.5 µM in assay [3]; above 37.5 µM in assay [4]; 24.4 µM in assay [5]; 33.3 µM in assay [6]. In addition, the TGI was 33 µM in assay [7], above 37.5 µM in assay [8], 7.57 µM in assay [9] and 23.8 µM in assay [10].
As for `Cc1cc(Br)c2nsnc2c1[N+](=O)[O-]`, the GI50 was 3.96 µM in [1]; 3.01 µM in assay [2]; 2.97 µM in [3]; 0.968 µM in assay [4]; 0.391 µM in assay [5]; 4.73 µM in assay [6]. Besides, the GI50 in assay [7] is 6.66 µM; in assay [8] it was 2.96 µM; in assay [9] it was 3.1 µM; in assay [10], 0.706 µM. The TGI was found to be 13.7 µM in assay [1]; 7.97 µM in assay [2]; 18.4 µM in [3]; 3.02 µM in assay [5]; 17.3 µM in [6]; 18.5 µM in assay [7]. The TGI in assay [8] amounted to 12.1 µM; in assay [9] it was 11.2 µM; in assay [10], 3.23 µM.
As for `CCc1ccc(Oc2nccc(-c3c(-c4ccc(F)cc4)ncn3C3CCNCC3)n2)cc1`, the GI50 in assay [1] was 4.91 µM; in assay [2] it was 4.24 µM; in [3] it was 7.01 µM; in [4], 4.64 µM; in [5] it was 4.39 µM; in assay [6], 5.02 µM. Moreover, the GI50 in [7] is 3.99 µM; in assay [8] it was 5.52 µM; in [9], 4.79 µM; in assay [10], 7.25 µM. Moreover, the TGI in [1] came to 10.4 µM; in assay [2], 7.93 µM; in assay [3], 17.1 µM; in [4], 10.9 µM; in assay [5], 8.37 µM; in assay [6], 13 µM. Also, the TGI in assay [7] came to 7.49 µM; in [8] it was 12.1 µM; in [9], 9.57 µM; in [10], 18.1 µM.
`O=C(NCCSSCCNC(=O)/C(Cc1ccc(O)c(Br)c1)=N/O)/C(Cc1ccc(O)c(Br)c1)=N/O`: the TGI was 8.49 µM in assay [1]; 6.82 µM in [2]; above 50 µM in assay [3]; above 50 µM in assay [4]; 8.21 µM in assay [5]; 18.3 µM in assay [6]. Besides, the TGI in assay [7] worked out at 2 µM; in assay [8], 4.29 µM; in assay [9], 8.84 µM; in [10], 7.08 µM.
Regarding `O=C1c2cccc3cccc(c23)C(=O)N1CC#Cc1ccc2c3c(cccc13)C(=O)N(CCN1CCNCC1)C2=O`, the GI50 in assay [1] is 1.86 µM; in assay [2], 3.3 µM; in [3], 11.2 µM; in assay [4], 1.16 µM; in [5], 1.8 µM; in assay [6], 1.93 µM. Also, the GI50 in assay [7] was 2.7 µM; in [8], 17.5 µM; in [9], 1.82 µM; in assay [10], 1.98 µM. Further, the TGI in assay [1] turned out to be 3.53 µM; in assay [2] it was 12.4 µM; in assay [3] it was 33.7 µM; in assay [4] it was 2.75 µM; in [5], 3.72 µM; in [6], 3.82 µM. Further, the TGI worked out at 10.4 µM in [7], 33.8 µM in assay [8], 3.39 µM in assay [9] and 4.78 µM in assay [10].
For the compound `Cc1ccc(NC(C(=O)c2ccccc2)c2ccccc2)cc1` (centres undefined), the GI50 is 4.02 µM in assay [1]; 3.02 µM in assay [2]; 2.09 µM in [3]; 3.07 µM in [4]; 3.79 µM in assay [5]; 3.93 µM in assay [6]. The GI50 is 17.6 µM in assay [7], 2.38 µM in assay [8], 13 µM in assay [9] and 4.26 µM in assay [10]. Moreover, the TGI in assay [1] is 15.6 µM; in [2], 13.7 µM; in [3], 7.79 µM; in assay [4] it was above 100 µM; in assay [5], 40.7 µM; in assay [6], above 100 µM. Also, the TGI in assay [7] was 46.3 µM; in assay [8], 8.71 µM; in assay [9] it was above 100 µM; in assay [10] it was 52.9 µM.
Take `COc1ccccc1N(C(C)=O)C1=C(Cl)C(=O)c2ccccc2C1=O`: the GI50 is 3.15 µM in [1]; 1.51 µM in assay [2]; 2.7 µM in [3]; 2.23 µM in [4]; 2.4 µM in assay [5]; 0.875 µM in [6]. Also, the GI50 was 1.12 µM in assay [7], 2.38 µM in [8], 1.45 µM in [9] and 1.78 µM in assay [10]. The TGI in [1] is 12 µM; in assay [2], 2.84 µM; in assay [3], above 71.9 µM; in assay [4], 7.67 µM; in [5] it was 10.5 µM; in assay [6] it was 2.14 µM. Moreover, the TGI in assay [7] was 2.45 µM; in [8], 6.5 µM; in assay [9], 4.77 µM; in assay [10], 5.16 µM.
`Cc1cc(N2CCN(C)CC2)nc(N(CCNc2ccnc3cc(Cl)ccc23)Cc2ccco2)n1`: the GI50 in assay [1] was 1.93 µM; in [2], 1.88 µM; in assay [3], 4.42 µM; in assay [4], 1.59 µM; in assay [5], 2.12 µM; in assay [6], 4.91 µM. Besides, the GI50 was 1.82 µM in assay [7], 1.8 µM in assay [8], 1.68 µM in [9] and 2.09 µM in [10]. The TGI in [1] was determined as 4.83 µM; in assay [2], 5.18 µM; in assay [3] it was 35.7 µM; in assay [4], 4.78 µM; in assay [5], 6.89 µM; in [6], 18.2 µM. In addition, the TGI in assay [7] worked out at 4.88 µM; in assay [8], 3.79 µM; in [9], 3.25 µM; in assay [10], 5.23 µM.
For the compound `S=C(Nc1ccc(Cl)cc1)SC1CCCCC1`, the TGI in assay [1] was above 100 µM; in [2], above 100 µM; in [3], above 100 µM; in assay [4], above 100 µM; in [5], 40.6 µM; in [6], above 100 µM. Moreover, the TGI in assay [7] is 58.9 µM; in assay [8], 70.5 µM; in assay [9], 61.3 µM; in assay [10], above 100 µM.
As for `C[C@@H](Oc1cc(-c2cnn(C3CC4(CNC4)C3)c2)cnc1N)c1c(Cl)ccc(F)c1Cl`, the GI50 is 5.6 µM in assay [1]; 1.38 µM in assay [2]; 3.87 µM in assay [3]; 0.349 µM in assay [4]; 0.532 µM in assay [5]; 9.15 µM in [6]. For the same compound, the GI50 is 3.39 µM in assay [7], 1.41 µM in assay [8], 2.51 µM in assay [9] and 0.0769 µM in [10]. Besides, the TGI turned out to be 19.1 µM in assay [1]; 3.3 µM in assay [2]; 27.1 µM in assay [3]; 5.43 µM in assay [4]; 5 µM in [5]; 22.7 µM in assay [6]. Further, the TGI in assay [7] turned out to be 12.7 µM; in assay [8] it was 13.6 µM; in [9], 7.89 µM; in [10] it was 2.05 µM.
As for `COc1cccc(C(C#N)NC23CC4CC(CC(C4)C2)C3)c1` (centres undefined), the TGI in [1], in [2], in assay [3], in [4], in assay [5] and in assay [6] was above 100 µM in each case. Moreover, the TGI in assay [7], in [8], in [9] and in assay [10] was above 100 µM each time.
For `NC(Cc1ccc(O)cc1)C(=O)N/N=C/c1ccc(N(CCCl)CCCl)cc1` (centres undefined), the GI50 in assay [1] was 5.98 µM; in assay [2], 44.5 µM; in assay [3] it was 32 µM; in assay [4], 3.59 µM; in assay [5] it was 7.52 µM; in [6] it was 28.4 µM. The GI50 in assay [7] is 20.6 µM; in assay [8] it was 1.37 µM; in assay [9], 4.26 µM; in assay [10], 0.189 µM. The TGI is 75.9 µM in assay [1]; above 100 µM in assay [2]; above 100 µM in assay [3]; above 100 µM in [4]; above 100 µM in [5]; above 100 µM in assay [6]. The TGI in assay [7] was above 100 µM; in assay [8] it was 6.35 µM; in assay [9], 68.3 µM; in assay [10], 20.4 µM.
On to `[CH3][Sn]([CH3])([CH3])[O]C(=O)C(O)c1ccccc1` (centres undefined), for which the GI50 in [1] was 4.81 µM; in assay [2], 4.93 µM; in assay [3], 11.5 µM; in [4] it was 5.27 µM; in [5], above 100 µM; in assay [6], 7.51 µM. The GI50 was 3 µM in assay [7], 3.67 µM in [8], 5.9 µM in assay [9] and 20.7 µM in assay [10]. Further, the TGI is above 100 µM in assay [1]; 23.7 µM in assay [2]; 59.8 µM in assay [3]; above 100 µM in [4]; above 100 µM in assay [5]; above 100 µM in assay [6]. Besides, the TGI in assay [7] was 7.43 µM; in assay [8], 16.9 µM; in [9], 29.2 µM; in assay [10] it was above 100 µM.
`O=c1c(-c2ccc3c(c2)OCO3)coc2c(CO)c(O)ccc12`: the GI50 was 1.97 µM in [1]; 20.9 µM in assay [2]; 2.28 µM in assay [3]; 2.87 µM in assay [4]; 2.72 µM in assay [5]; 3.39 µM in [6]. The GI50 was 0.941 µM in [7], 2.2 µM in assay [8], 2.28 µM in assay [9] and 2.65 µM in assay [10]. The TGI in assay [1] is 4.6 µM; in assay [2], 45.5 µM; in [3], 7.12 µM; in [4] it was above 100 µM; in assay [5], 25.4 µM; in assay [6] it was 18.1 µM. The TGI in [7] was 2.29 µM; in [8], 6.18 µM; in [9], 6.46 µM; in assay [10], above 100 µM.
In the case of `COc1ccc(Oc2nc(Nc3ccc(N4CCOCC4)cc3)ncc2NC(=O)Nc2cc(OC)cc(OC)c2)cc1`, the GI50 in assay [1] is 1.31 µM; in assay [2] it was 5.27 µM; in assay [3] it was 8 µM; in assay [4], 4.66 µM; in [5], 4.97 µM; in [6], 2.91 µM. Further, the GI50 is 1.54 µM in assay [7], 4.19 µM in assay [8], 1.06 µM in assay [9] and 6.76 µM in [10]. The TGI is 5.74 µM in [1]; 14.7 µM in assay [2]; above 33.3 µM in assay [3]; above 33.3 µM in assay [4]; above 33.3 µM in assay [5]; 10.9 µM in [6]. Besides, the TGI in [7] was 5.8 µM; in [8], 12.7 µM; in assay [9] it was 4.69 µM; in assay [10], above 33.3 µM.
On to `NS(=O)(=O)c1cccc(-c2cc3ccncc3cc2OCc2ccccc2)c1`, for which the GI50 in assay [1] was 7.37 µM; in [2] it was 10.7 µM; in [3], 4.2 µM; in assay [4], 6.61 µM; in assay [5], 10.5 µM; in [6] it was 11.5 µM. Besides, the GI50 in [7] is 4.96 µM; in assay [8], 6.55 µM; in assay [9] it was 8.62 µM; in assay [10] it was 11.6 µM. The TGI in assay [1] is above 20.7 µM; in assay [2] it was above 25 µM; in assay [3], above 18.4 µM; in assay [4] it was above 25 µM; in assay [5] it was above 25 µM; in assay [6], above 25 µM. For the same compound, the TGI was above 21.8 µM in assay [7], above 17.7 µM in assay [8], above 25 µM in assay [9] and above 25 µM in assay [10].
